In US9149572B2, “Chondroitin sulfate having decreased molecular weight and use thereof” (Seikagaku Corporation, priority 2007, dated 2015):

Key:
[1] = test system: HL-60 cells differentiated into neutrophil-like cells; test: ROS scavenging in phorbol ester-stimulated HL-60 cells (L-012 luminescence), Example 6; format: cell-based
Protocol: An experiment was performed according to the method of Olga T. et al. (Toxicological Science, 76: 376, 2003). To be more specific, HL-60 cells differentiated into neutrophil-like cells were suspended in a culture medium at 2×10^6 cells/mL, and the resulting cell suspension was added to a 96-well plate at 50 μL/well. Then, a test substance was added to the well at 50 μL/well (final concentration: 0.03%, 0.1%, and 0.3% (w/v)). Further, the culture medium was added to the well as a negative control at 50 μL/well. […] As a background, the plate to which the culture medium was added in place of the phorbol ester was incubated in the same manner. After completion of the incubation, a luminescence intensity (CPS) was measured using a multilabel counter, ARVOSX 1420 (manufactured by PerkinElmer) and an ROS scavenging rate was calculated according to the following calculation equation. […] Incidentally, as the test substance, the following substances were used. Further, as a positive control substance, 20 nM staurosporine (a known phorbol ester signal inhibitor) was used.

[2] = test system: AGE production; test: Inhibition of AGE production (glucose and bovine serum albumin, fluorescence), Example 5; format: biochemical; details: positive control substance 1 mM; 37° C., 4 weeks
Protocol: An experiment was performed according to the method of T. Kiho et al. (Biosci Biotechnol Biochem, 68: 200, 2004). To be more specific, a test substance was dissolved in 0.1 M phosphate buffer (pH 7.4) containing 500 mM glucose and 10 mg/mL bovine serum albumin at a concentration of 0.1% (w/v), and the resulting solution was incubated at 37° C. for 4 weeks. After 4 weeks, a value of fluorescence emitted by AGE was measured at an excitation light wavelength of 355 nm and a measurement wavelength of 460 nm, and the amount of produced AGE was determined, and then, an inhibition rate of AGE production was calculated according to the following calculation equation. Inhibition rate of AGE production(%)=[1−(Fluorescence value when test substance was added)/(Fluorescence value when test substance was not added)]×100 [Equation 1] (Experimental Results)
Incidentally, as the test substance, the following substances were used. Further, as a positive control substance, 1 mM aminoguanidine (a known AGE production inhibitor) was used.

[3] = test system: peritoneum (ultrafiltration capacity); test: Peritoneal equilibration test after repeated peritoneal dialysis fluid administration (water removal rate), Example 3; format: in vivo, Wistar male rat; details: 0.1% (w/v) in Midpeliq 250, into the peritoneal cavity once daily 15 mL/body for 7 days; vs control group; FIG. 1; CSC 10 kDa by method of Example 2
Protocol: To a Wistar male rat at 8 weeks of age, Midpeliq 250 (trade name, a peritoneal dialysis fluid containing glucose at a concentration of 2.5% (w/v) manufactured by Terumo Corporation) in which a test substance was dissolved at a concentration of 0.1% (w/v) was repetitively administered into the peritoneal cavity once daily at 15 mL/body for 7 days under ether anesthesia. To a control group (Control), Midpeliq 250 was administered in the same manner. On the next day after the final administration, a peritoneal equilibration test was performed, and the peritoneal function was evaluated. To be more specific, Midpeliq 250 was injected into the peritoneal cavity at 60 mL/kg, and 4 hours thereafter, the fluid remaining in the peritoneal cavity was recovered. The amount of the recovered fluid was measured, and the ultrafiltration capacity (water removal rate) of the peritoneum was evaluated.

[4] = Table 4, test substance 0.1% (w/v), CSC 10 kDa by method of Example 1

“Chondroitin sulfate A, sodium salt (whale cartilage), SG [CSA 30 kDa]” was tested. Which ROS scavenging rate [1, 4] did it give?
The ROS scavenging rate was 33.4%.

How did the ROS scavenging rate ([1]; Table 4, positive control substance 20 nM) turn out when CN[C@@H]1C[C@H]2O[C@@](C)([C@@H]1OC)n1c3ccccc3c3c4c(c5c6ccccc6n2c5c31)C(=O)NC4 [Staurosporine, staurosporine, reference compound] was run?
Its ROS scavenging rate is 97.4%.

And the ROS scavenging rate ([1]; Table 5, positive control substance 20 nM)?
Its ROS scavenging rate is 98.1%.

With N=C(N)NN [Aminoguanidine, aminoguanidine] as the molecule, how does the “Inhibition rate of AGE production” value [2] read?
Its value is 52.7%.

“Chondroitin sulfate E, sodium salt (squid cartilage) [CSE 75 kDa]” was tested. Which ROS scavenging rate [1, 4] did it give?
Its ROS scavenging rate is 21.9%.

How did the ROS scavenging rate [1, 4] turn out when Chondroitin, sodium salt [Ch 5 kDa] was run?
The ROS scavenging rate was 13.6%.

What does the source list for “Chondroitin sulfate C, sodium salt (shark cartilage), SG [CSC 30 kDa]”?
effect of protecting the peritoneum (action of inhibiting a decrease in water removal rate) [3]: statistically significant effect was not observed; ROS scavenging rate [1, 4]: 5.0%
